Test results reported in article PMC7139703, “Thiopurine Derivative-Induced Fpg/Nei DNA Glycosylase Inhibition: Structural, Dynamic and Functional Insights” (International Journal of Molecular Sciences, 2020).

Columns and labels:
mvNei1 = target: T1, mvNei1 (Acanthamoeba polyphaga mimivirus, UniProt Q5UQ00); assay: EMSA, mvNei1 DNA binding to THF-containing DNA duplex; settings: Figure 4
T1 construct: 6His (C); made in house; host or cells: E. coli Rosetta2 (DE3)
Procedure: Figure 4 Comparative analysis of the effect of 2TX and TXn on Fpg/Nei DNA glycosylases. Enzyme activities were measured as described in the Figure 1 legend using 0.1 nM of a 5′-[^32P]-24-mer DNA duplex containing either an 8-oxoG opposite C for LlFpg or a […] (DHU) opposite G for hNeil1 and mvNei1. The DNA probe was incubated with the indicated protein concentration and 0.2 mM TXn compounds in the presence or absence of 1 mM dithiothreitol (DTT) and TCEP (a representative experiment is illustrated by the upper histograms). […]
The DNA binding activity was measured using EMSA [37]. […] After electrophoresis, the gels were dried and exposed overnight for autoradiography using a Typhoon imager and quantified with ImageQuant software. To evaluate the inhibitor effect of 2TX/TXn on the DNA binding activity of each Fpg/Nei enzyme, we first determined the experimental conditions required to bind 50% of the DNA probes without an inhibitor in the presence of 8% DMSO (limiting enzyme concentration). […] This effect was determined by the addition of the thio-compound in the pre-equilibrium mixture of the enzyme and DNA probe (30 min) and incubated for an additional 30 min at 4 °C. For the best inhibitors of Fpg, a dose-response curve was established from at least three independent experiments and the IC50 was determined (IC50^B, Table 1).

hNeil1 = hNeil1 (Homo sapiens, UniProt Q96FI4); assay: EMSA, hNeil1 DNA binding to THF-containing DNA duplex; settings: Figure 4
Sequence of hNeil1 (Q96FI4 2-290 limits assumed): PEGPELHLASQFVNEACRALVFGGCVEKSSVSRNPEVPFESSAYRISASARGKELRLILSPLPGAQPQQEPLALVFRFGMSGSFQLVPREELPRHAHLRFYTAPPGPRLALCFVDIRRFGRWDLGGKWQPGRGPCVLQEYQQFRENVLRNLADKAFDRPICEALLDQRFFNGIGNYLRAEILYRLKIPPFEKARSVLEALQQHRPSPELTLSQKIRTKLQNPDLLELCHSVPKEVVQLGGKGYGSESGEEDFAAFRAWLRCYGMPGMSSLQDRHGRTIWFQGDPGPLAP

T1 sequence (Q5UQ00 whole entry): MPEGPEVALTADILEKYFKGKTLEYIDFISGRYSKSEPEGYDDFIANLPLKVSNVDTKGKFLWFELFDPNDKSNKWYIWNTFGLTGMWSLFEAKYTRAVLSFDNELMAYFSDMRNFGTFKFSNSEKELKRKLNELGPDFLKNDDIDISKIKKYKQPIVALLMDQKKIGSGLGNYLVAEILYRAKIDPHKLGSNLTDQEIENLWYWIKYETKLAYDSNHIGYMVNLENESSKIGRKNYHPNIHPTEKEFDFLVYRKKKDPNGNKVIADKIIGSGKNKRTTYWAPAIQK

SMILES: O=c1[nH]c(=S)[nH]c2[nH]c(=S)[nH]c12 [TX19]
- effect on mvNei1 DNA binding activity (mvNei1): apparent inhibitory effects
- effect on hNeil1 DNA binding activity (hNeil1): apparent inhibitory effects
